Assay results taken from patent publication US8372406B2, “Antitumoral and antiviral peptides” (priority 2004, dated 2013).

What was measured:
[1] = tested on: R388D1 cells (lymphoid neoplasm of a mouse); assay: Clonogenic activity of tumor cells, interaction with cyclophosphamide; format: cell-based; conditions: clones counted after 7 days; for influence upon the cloning process (clonogenic activity): taken separately
leucocytes of a human = assay: Interferon in vitro synthesis by human leucocytes (interferonogenic activity); format: cell-based; conditions: 0.01-10 microgram/ml, 24 hours, 6 donated blood samples
[2] = tested on: mice tumor syngeneic graft; assay: Growth of mice tumor syngeneic graft (alloferon research); conditions: mouse, in vivo
tumor cells = assay: In vitro effect of alloferon on tumor cell proliferation; format: cell-based; conditions: depending on concentration in cultural media
R388D1-type tumor cells = assay: In vitro influence on tumor cells proliferation (mass culture, cell counts); format: cell-based, mouse
Experimental: Object of instant experiments is the comparative analysis of influence of allostatin and alloferon on tumor cells proliferation. Effects of allostatin-1 and alloferon-1 in concentrations 0.001, 0.01, 0.1, 1, and 10 microgram per ml on proliferative activity in a mass culture of R388D1-type tumor cells were compared. 5000 cells suspended in 2 ml of […] medium were seed into wells of 24-socket plates. Medium used for the experiments comprises 5% fetal calf serum produced by firm “Biolot”. Preparations were introduced into wells in 0.2 ml of the sane medium immediately after inoculation, and, in control, equivalent amount of the medium was introduced without medications. Number of cells in 1 ml of incubating medium was estimated by means of hemocytometric camera. Average number of cells in 1 ml of incubating medium after 21, 44, 99 and 144 hours after beginning of the experiment was estimated on the base of 3 independent measurements.
FIG. 3 presents a typical view of allostatin and alloferon influence on growth dynamics of tumor cell population. As an evaluation indicator of anti-proliferative activity of the medication, the value of a growth multiplicity of the population for 90 hours was selected, which value is determined as a ratio of a number of cells in a well in the beginning and at the end of the incubation time. […]

[3] = tested on: tumor cells of the syngeneic line R388D1; assay: Antitumoral action on transplanted tumors in mice; format: in vivo, mouse (line DBA-1)
Experimental: Each of laboratory mouse (line DBA-1) was subcutaneously injected by 3000 tumor cells of the syngeneic line R388D1. Next day mice were separated into 4 experimental groups. Mice of the first group have got only allostatin in a subcutaneous way in a dosage on 25 microgram at 4, 11 and 18 day after tumor cell transplantation. Second group has got a combination of cytostatic agents, cyclophosphamide (0.56 mg), doxorubicine (0.036 mg) and vincrystine (1.05 microgram) on the day of transplantation and after 7, 14 and 21 days. Third group has got allostatin and combination of cytostatic agents in the same way. Mice of the fourth group (control group) were injected by the solvent (0.9% NaCl) in the same days.

Molecule | influence upon the cloning process (clonogenic activity) [1] | interferonogenic activity (allostatin vs alloferon) (leucocytes of a human) | growth of mice tumor syngeneic graft [2] | proliferation of tumor cells (tumor cells) | growth of the tumor cell population (R388D1-type tumor cells; 10 microgram/ml, over the observation period) | anti-proliferative activity relative to alloferon (growth multiplicity of the population) (R388D1-type tumor cells; concentrations of 0.001-1 mkg/ml, growth multiplicity for 90 hours) | clonogenic activity of tumor cells ([1]; allostatin in combination with cyclophosphamide) | mice with formed tumors during observation period ([3]; allostatin 25 microgram s.c. (days 4, 11, 18) combined with cytostatics (cyclophosphamide, doxorubicine, vincrystine)) [%] | tumor formation ([3]; allostatin or cytostatics given separately, DBA-1 mice, 3000 R388D1 cells subcutaneously) | antitumoral action ([3]; combination of allostatin and cytostatics)
O=P1(N(CCCl)CCCl)NCCCO1 (stereo not drawn) [cyclophosphamide, reference compound] | Neither cyclophosphamide, nor allostatin taken separately, had a significant influence |  |  |  |  |  |  |  |  | 
alloferon: Known immunomodulating peptide, SEQ ID NO 12; closest analogue, histidine and valine in positions 6 and 11 (HGVSGHGQHGVHG; Alloferon-1; listed as Calliphora vicina) |  | have no significant difference | depresses the growth | may both inhibit (at high concentrations) and stimulate (at low concentrations) |  |  |  |  |  | 
allostatin: Linear 13-amino-acid peptide, SEQ ID NO 1; differs from alloferon-1 by tryptophan at position 6 and threonine at position 11 (HGVSGWGQHGTHG; Synthetic construct designed on the basis of the peptides SEQ ID NO 2-12 comparison) | Neither cyclophosphamide, nor allostatin taken separately, had a significant influence | have no significant difference |  |  | almost completely stopped the growth | 3-7 times | significantly decreased a clonogenic activity of tumor cells, proportionally to allostatin dose | 40 | tumors were formed after some delays, and moderate part of animals has not exhibited tumor formation | strong and in the most cases irreversible antitumoral action
